Laboratory results: patent US10272080B2, “Selective dopamine D4 receptor agonists for treatment of working memory deficits” (priority 2013, dated 2019)

How the values were obtained:
PNE mice = assay: Y-maze spontaneous alternation assay in prenatal nicotine exposure (PNE) mice; assay type: in vivo, mice (C57/B6); conditions: for changes in spontaneous alternations in PNE mice (Y-maze): PNE mice only, FIG. 6, N=8-9; for spontaneous alternations in the PNE mice, comparison of methylphenidate and PD 168077: FIG. 10, n=9-10 per group
Procedure: (§1) A prenatal nicotine exposure (PNE) mouse model to screen for drugs that alleviate the symptoms of ADHD and associated working memory deficits is developed.^13,14 In this model, adult female C57/B6 mice are exposed to nicotine (100 μg/ml nicotine and 2% saccharin in drinking water, pH 7.2) starting 4-6 weeks prior to mating with drug-naïve male mice, and throughout their pregnancies. Two groups of age- and bodyweight-matched female mice are used as controls. In the saccharin-only (SAC) control group, mice were exposed to saccharin alone (2% saccharin in drinking water, pH 7.2), and mice in the plain drinking water (WATER) control group were exposed to drinking water without any additives. On the day the mice littered, the litter size was standardized to contain 6-8 offspring (4 males and 4 females, whenever possible). Within 48 hours of birth offspring from the PNE, SAC and WATER groups were removed from their biological mothers and cross fostered to drug-naïve nursing dams. At the age of 90 days (postnatal day 90; P90), male offspring from each group were used in experimental analyses.
(§2) On postnatal day 90 (P90), a Y-maze assay is used to examine changes in spontaneous alternation in the PNE mouse model.
In additional experiments, saline, selective D1 receptor agonist (A-77636), selective D2/D3 receptor agonist (LY 171555), and selective D4 receptor agonist (PD 168077) are administered to the PNE and SAC mice followed with the assay of spontaneous alternations using the Y-maze.
Methylphenidate, the classic stimulant treatment for ADHD, is examined for its efficacy in alleviating working memory deficits in the PNE mice. It is disclosed that methylphenidate increases extracellular dopamine in the frontal cortex of mice.^1,14 In the example of the present invention, saline or a therapeutic equivalent dose of methylphenidate^18 is administered to PNE and SAC mice. The PNE and SAC mice administered saline or a therapeutic equivalent dose of methylphenidate are assayed for spontaneous alternations in the Y-maze.

SAC mice = assay: Y-maze spontaneous alternation assay in saccharin-only (SAC) control mice; assay type: in vivo, mice (C57/B6)
Procedure: as §1
On postnatal day 90 (P90), a Y-maze assay is used to examine changes in spontaneous alternation in the PNE mouse model. […]

drug naïve mice = assay: Y-maze spontaneous alternation in drug naïve (WATER group) mice with pharmacological blockade of the D4 receptor; assay type: in vivo, mice (C57/B6); conditions: drug naïve mice given D4 antagonist L 745087, Panel B of FIG. 7
Procedure: as §1, §2

dopamine D2/D3 receptors = assay: GTPγS binding assay, D2/D3 receptor activity in frontal cortical membrane preparations after methylphenidate treatment; assay type: biochemical; conditions: PNE or SAC mice after methylphenidate treatment, FIG. 9
Procedure: D2/D3 and D4 receptor activities are also analyzed using GTPγS binding assays with frontal cortical membrane preparations from PNE and SAC mice following the methylphenidate treatment. […] Mean±SEM, n=10-11 per group.

dopamine D4 receptor = assay: GTPγS binding assay, D4 receptor activity in frontal cortical membrane preparations after methylphenidate treatment; assay type: biochemical, mice; conditions: FIG. 9
Procedure: Following the Y maze assay, GTPγS receptor binding assay is performed to examine the dopamine receptor signaling in mice of different groups and therefore to determine which dopamine subtypes are activated. GTPγS binding assay is used to measure agonist-induced dopamine receptor-G-protein coupling in membrane preparations obtained from specific brain regions such as the frontal cortex.^17 This assay uses pharmacological compounds that selectively activate each receptor subtype. Since compounds selective for each of the 5 dopamine receptor subtypes are not available yet, testing is limited to assaying activities of the D2/D3 and D4 receptor only. In this assay, a D2 receptor agonist LY 171555 and a selective D4R agonist PD 168077, both in 30 μM, are used to exam the activities of D2/D3 receptor and D4 receptor, respectively.
D2/D3 and D4 receptor activities are also analyzed using GTPγS binding assays with frontal cortical membrane preparations from PNE and SAC mice following the methylphenidate treatment. Increases are found in D4 agonist-induced G-protein coupling in the frontal cortices of PNE mice following the methylphenidate treatment, compared to saline treatment (Panel A, FIG. 9). […]

NC[C@@H]1O[C@H](C23CC4CC(CC(C4)C2)C3)Cc2c1ccc(O)c2O [A-77636]
changes in spontaneous alternations in PNE mice (Y-maze) (PNE mice): neither the D1 nor the D2/D3 agonist produces significant changes

CCCN1CCC[C@@H]2Cc3n[nH]cc3C[C@H]21 [LY 171555]
changes in spontaneous alternations in PNE mice (Y-maze) (PNE mice): neither the D1 nor the D2/D3 agonist produces significant changes

Cc1cccc(C(=O)NCN2CCN(c3ccccc3C#N)CC2)c1 [PD 168077, N-([4-(2-cyanophenyl)piperazin-1-yl]methyl)-3-methylbenzamide]
change in spontaneous alternations in the SAC group (Y-maze) (SAC mice; 20 mg/kg, FIG. 5): the change is not significant
spontaneous alternations in the PNE mice, comparison of methylphenidate and PD 168077 (PNE mice): greater than that of MPH
working memory in prenatal nicotine exposure mouse models (PNE mice; PD 168077 about 10 mg per kilogram body weight): shows improvement in working memory
working memory in prenatal nicotine exposure mouse models (PNE mice; PD 168077 about 20 mg per kilogram body weight): shows greater improvement in working memory
difference in spontaneous alternations between the PNE group and the SAC group after administration (PNE mice; after PD 168077 administration, FIG. 5): no statistically significant difference
spontaneous alternations in the PNE mice (Y-maze) (PNE mice; dose from about 10 mg/kg to about 20 mg/kg, FIG. 5): produces improvement in spontaneous alternations in the PNE mice in a dose dependent manner
effect on L 745087 antagonist-induced decrease in spontaneous alternations (drug naïve mice): abolishes the antagonist-induced decreases in spontaneous alternations in a dose-dependent manner

COC(=O)C(c1ccccc1)C1CCCCN1 (stereo not shown) [methylphenidate]
D2/D3 receptor coupling to G-protein in the frontal cortices (dopamine D2/D3 receptors): does not produce significant alterations
activity of D4 receptor in the prefrontal cortex (D4 agonist-induced G-protein coupling), Mean±SEM (dopamine D4 receptor; MPH treated PNE mice, saline treated about 92.0±3.5): about 131.6±11.6
D4 receptor activity in the SAC group (dopamine D4 receptor; SAC mice receiving methylphenidate treatment): no significant change
spontaneous alternations in the SAC control group (Y-maze) (SAC mice; single oral 0.75 mg/kg, FIG. 8): no significant effect
spontaneous alternations in the PNE mice, comparison of methylphenidate and PD 168077 (PNE mice): increase spontaneous alternations
spontaneous alternation in PNE mice (Y-maze), Mean±SEM (PNE mice; single oral 0.75 mg/kg about 30 minutes before the Y maze assay, saline about 48.0±2.2, FIG. 8): about 57.1±1.8
difference in spontaneous alternations between methylphenidate-exposed PNE mice and saline-exposed SAC control mice (PNE mice; single oral 0.75 mg/kg, FIG. 8): no longer a significant difference
